{"source": "ChEMBL document CHEMBL5113489", "about": "“Design, synthesis, and biological evaluation of membrane-active honokiol derivatives as potent antibacterial agents” (Eur J Med Chem, 2022)", "key": {"Staphylococcus aureus [1]": {"tested_on": "Staphylococcus aureus", "assay": "Anti-biofilm activity in Staphylococcus aureus ATCC 43300 assessed as disruption rate of biofilm at 0.5 ug/ml measured by crystal violet staining method", "assay_type": "functional", "conditions": "dose 0.5 µg/ml"}, "Bacillus subtilis": {"tested_on": "Bacillus subtilis", "assay": "Antibacterial activity against Bacillus subtilis ATCC 9372", "assay_type": "functional"}, "[2]": {"assay": "Cytotoxicity against human HepG2 cells assessed as cell viability at 8 ug/ml measured by SRB assay", "assay_type": "toxicity, cell-based", "conditions": "at 8 µg/mL, read-out: Activity"}, "Staphylococcus aureus [3]": {"tested_on": "Staphylococcus aureus", "assay": "Anti-biofilm activity in Staphylococcus aureus ATCC 43300 assessed as disruption rate of biofilm at 2 ug/ml measured by crystal violet staining method", "assay_type": "functional", "conditions": "dose 2 µg/ml"}, "Escherichia coli [4]": {"tested_on": "Escherichia coli", "assay": "Antibacterial activity against Escherichia coli ATCC 25922 assessed as resistance development by measuring fold increase in MIC", "assay_type": "functional"}, "Escherichia coli [5]": {"tested_on": "Escherichia coli", "assay": "Antibacterial activity against Escherichia coli ATCC 25922 assessed as bacterial killing at 8XMIC incubated for 3 hrs and measured by time-kill kinetic study", "assay_type": "functional"}, "[6]": {"assay": "Cytotoxicity against human HepG2 cells assessed as cell viability at 4 ug/ml measured by SRB assay", "assay_type": "toxicity, cell-based", "conditions": "at 4 µg/mL, read-out: Activity"}, "Cell membrane [7]": {"tested_on": "Cell membrane", "assay": "Induction of cytoplasmic membrane depolarization in Staphylococcus aureus ATCC 43300 assessed as increase in fluorescence intensity at 1 to 8 times MIC measured by DiSC3-5 dye based fluorescence method", "assay_type": "subcellular"}, "Staphylococcus aureus [8]": {"tested_on": "Staphylococcus aureus", "assay": "Anti-biofilm activity in Staphylococcus aureus ATCC 43300 assessed as disruption rate of biofilm at 1 ug/ml measured by crystal violet staining method", "assay_type": "functional", "conditions": "dose 1 µg/ml"}, "[9]": {"assay": "Selectivity index, ratio of HC50 for hemolytic activity in sheep RBC to MIC for antibacterial activity against Staphylococcus aureus ATCC 43300", "assay_type": "toxicity", "conditions": "sheep red blood cells (erythrocytes)"}, "Staphylococcus aureus [10]": {"tested_on": "Staphylococcus aureus", "assay": "Antibacterial activity against Staphylococcus aureus ATCC 43300", "assay_type": "functional"}, "Cell membrane [11]": {"tested_on": "Cell membrane", "assay": "Induction of inner membrane permeabilization in Staphylococcus aureus ATCC 43300 assessed as increase in PI uptake by measuring increase in fluorescence intensity at 1 to 8 ug/ml by propidium iodide staining based fluorescence analysis", "assay_type": "subcellular", "conditions": "dose 1-8 µg/ml"}, "Cell membrane [12]": {"tested_on": "Cell membrane", "assay": "Induction of outer membrane permeabilization to NPN in Escherichia coli ATCC 25922 cells assessed as increase in fluorescence intensity at 4 to 32 ug/ml by NPN-probe based fluorescence spectrophotometric analysis", "assay_type": "subcellular", "conditions": "dose 4-32 µg/ml"}, "Staphylococcus aureus [13]": {"tested_on": "Staphylococcus aureus", "assay": "Antibacterial activity against Staphylococcus aureus ATCC 25923", "assay_type": "functional"}, "[14]": {"assay": "Toxicity in septicemia mouse model infected with Staphylococcus aureus ATCC 43300 assessed as effect on kidney at 5 to 10 mg/kg, administered every 12 hrs for 3 days measured by histopathological analysis", "assay_type": "organism-based", "conditions": "in vivo, dose 5-10 mg/kg"}, "Staphylococcus aureus [15]": {"tested_on": "Staphylococcus aureus", "assay": "Antibacterial activity against Staphylococcus aureus ATCC 43300 assessed as bacterial killing at 8XMIC incubated for 3 hrs and measured by time-kill kinetic study", "assay_type": "functional"}, "Staphylococcus aureus [16]": {"tested_on": "Staphylococcus aureus", "assay": "In vivo antibacterial activity against Staphylococcus aureus ATCC 43300 in septicemia mouse model assessed as log reduction in bacterial load in kidney at 10 mg/kg, administered every 12 hrs for 3 days", "assay_type": "functional"}, "Staphylococcus aureus [17]": {"tested_on": "Staphylococcus aureus", "assay": "Anti-biofilm activity in Staphylococcus aureus ATCC 43300 assessed as disruption rate of biofilm at 8 ug/ml measured by crystal violet staining method", "assay_type": "functional", "conditions": "dose 8 µg/ml"}, "Escherichia coli [18]": {"tested_on": "Escherichia coli", "assay": "Antibacterial activity against Escherichia coli ATCC 25922", "assay_type": "functional"}, "[19]": {"assay": "Cytotoxicity against human HepG2 cells assessed as cell viability at 16 ug/ml measured by SRB assay", "assay_type": "toxicity, cell-based", "conditions": "at 16 µg/mL, read-out: Activity"}, "Staphylococcus aureus [20]": {"tested_on": "Staphylococcus aureus", "assay": "Anti-biofilm activity in Staphylococcus aureus ATCC 43300 assessed as inhibition of biofilm formation at 1 ug/ml", "assay_type": "functional"}, "Escherichia coli [21]": {"tested_on": "Escherichia coli", "assay": "Anti-biofilm activity in Escherichia coli ATCC 25922 assessed as inhibition of biofilm formation at 16 ug/ml", "assay_type": "functional"}}, "note": "Calls of active or inactive are those of the source. No cut-off for these calls is given here.", "data": [{"compound": "C=CCc1ccc(OCCC[N+](C)(C)CCCCCC)c(-c2ccc(OCCC[N+](C)(C)CCCCCC)c(CC=C)c2)c1.[Br-].[Br-]", "values": [{"measurement": "Activity", "setting": "Staphylococcus aureus [1]", "value": 5.22, "unit": "%"}, {"measurement": "MIC", "setting": "Bacillus subtilis", "value": 1, "unit": "µg/mL"}, {"measurement": "viability at 8 ug/ml", "setting": "[2]", "value": 90.3, "unit": "%"}, {"measurement": "Activity", "setting": "Staphylococcus aureus [3]", "value": 11.43, "unit": "%"}, {"measurement": "fold change (FC)", "setting": "Escherichia coli [4]", "value": "<4"}, {"measurement": "Activity", "setting": "Escherichia coli [5]", "value": 100, "unit": "%"}, {"measurement": "viability at 4 ug/ml", "setting": "[6]", "value": 94.7, "unit": "%"}, {"measurement": "Activity", "setting": "Cell membrane [7]", "value": "Active"}, {"measurement": "Activity", "setting": "Staphylococcus aureus [8]", "value": 9.59, "unit": "%"}, {"measurement": "selectivity ratio", "setting": "[9]", "value": 410}, {"measurement": "MIC", "setting": "Staphylococcus aureus [10]", "value": 1, "unit": "µg/mL"}, {"measurement": "Activity", "setting": "Cell membrane [11]", "value": "Active"}, {"measurement": "Activity", "setting": "Cell membrane [12]", "value": "Active"}, {"measurement": "MIC", "setting": "Staphylococcus aureus [13]", "value": 2, "unit": "µg/mL"}, {"measurement": "Activity", "setting": "[14]", "value": "Non-Toxic"}, {"measurement": "Activity", "setting": "Staphylococcus aureus [15]", "value": 100, "unit": "%"}, {"measurement": "log(activity)", "setting": "Staphylococcus aureus [16]", "value": 1.94}, {"measurement": "Activity", "setting": "Staphylococcus aureus [17]", "value": 28.56, "unit": "%"}, {"measurement": "MIC", "setting": "Escherichia coli [18]", "value": 4, "unit": "µg/mL"}, {"measurement": "viability at 16 ug/ml", "setting": "[19]", "value": 85.4, "unit": "%"}, {"measurement": "inhibition at 1 µg/mL", "setting": "Staphylococcus aureus [20]", "value": 12.9, "unit": "%"}, {"measurement": "inhibition at 16 µg/mL", "setting": "Escherichia coli [21]", "value": 65.4, "unit": "%"}]}]}
